Experiments:
[1] = Storage stability at 40° C. dissolved in medium chain fatty acid triglyceride (MCT), content by HPLC; type: physicochemical; settings: for content of compound, initial / content of compound, 14 days: in MCT (compound 1 0.36 mg/g; compound 2 0.12 mg/g); for content of compound, initial: 40° C.; for content of compound, 14 days: in % (unit assumed)
Description: The following compounds 1 and 2 were dissolved in a medium chain fatty acid triglyceride (MCT=mixture of caprylic acid triglyceride and capric acid triglyceride in a ratio of 85:15) in an amount shown in the table below.
(§1) Each of the solutions was placed in a container made of hard glass and stored at 40° C. The time-course content of compound 1 and 2 in the solutions were determined by HPLC method. At the same time, each of compounds 1 and 2 was placed solely (without being dissolved in the solvent) in the container as above, and stored at 40° C. to provide control study.
(2) In the presence of the solvent, the content of the compound was determined as follows by HPLC method.
Based on the value expressed in the above table, an amount of the solution corresponding to 36 μg of compounds 1 and 2 was weighed precisely. Precisely 1.0 mL of an internal standard solution was added, and then ethyl acetate, (liquid chromatograph grade) was added to give a total amount of 10 mL each. Each 0.1 mL of the solution was vacuum concentrated to dryness to give the test preparation.
Each 18 mg of the standard compounds was weighed precisely and admixed with ethyl acetate (liquid chromatograph grade) to give the total amount of exactly 50 mL each. 1.0 mL of the solution and 10.0 mL of the internal standard solution were measured precisely and admixed with ethyl acetate (liquid chromatograph grade) to give a total of 100 mL each. Each 0.1 mL of the solution was vacuum concentrated to dryness to give the standard preparation.
To the test and standard preparations, 0.1 mL of fluorescent labeling reagent and 0.85 mL of fluorescent labeling catalyst were added, respectively, and the mixture was stirred and reacted at room temperature for more than 30 minutes. 0.05 mL aliquots of acetonitrile (liquid chromatograph grade) containing 2% acetic acid were added to the reaction mixtures, respectively, stirred, and then allowed to stand for more than 30 minutes to provide test and standard solutions.
Each 10 μL of the test and standard solution was loaded on liquid chromatograph and determined the content of the respective compounds by internal standard method with one point calibration curve.
(§2) WX: The amount of the compound in the standard preparation (mg)
(§3) QS: Peak area ratio of the compound in the standard preparation to the internal standard.
(§4) QT: Peak area ratio of the compound in the test preparation to the internal standard.
Detector: Fluorescent spectrometer (excitation wavelength 259 nm; fluorescent wavelength 394 nm)
(§5) Column: A stainless tube having about 5 mm of internal diameter and about 25 cm of length, packed with 5 μm octadecylsilyl silica gel for liquid chromatograph
Column temperature: Stable at around 35° C.
Mobile phase: Mixed solution of acetonitrile (liquid chromatograph grade)/methanol (liquid chromatograph grade)/aqueous ammonium acetate (0.05 mol/L) (4:11:5)

[2] = Storage stability at 40° C. without solvent (crystal), content by HPLC; type: physicochemical; settings: crystal (no solvent); for content of compound, initial: hard glass container, 40° C.
Description: as §1
(1) In the absence of the solvent, the content of the compounds was determined as follows by the HPLC method.
Stored compounds 1 and 2, and standard compounds 1 and 2 were weighed precisely around 0.025 g each, and exactly 5 mL aliquots of internal standard solution were added to the respectively weighed compounds. Test and standard preparations were obtained by adding acetonitrile (liquid chromatograph grade) to give the precise total amount of 10 mL each. Each 10 μL of the test and standard preparations were loaded on liquid chromatograph and determined the content of the compound by internal standard method with one point calibration curve.
as §2
WT: The amount of compound 1 and 2 in the test preparation.
as §3, §4
Detector: Ultraviolet absorption spectrophotometer (wavelength 294 nm)
as §5
Column temperature: Stable around 35° C.
Mobile phase: Mixed solution of acetonitrile (liquid chromatograph grade)/aqueous sodium acetate (0.01 mol/L)/glacial acetic acid (800:200:1)

intraintestinal content = test: Enteropooling test; type: in vivo; settings: dose that raises the intraintestinal content by 50%
From the text: The enteropooling test employed in the present invention is intended to investigate mainly on the action (ii) and/or (iii), which assesses the effect of the drug on the intraintestinal water pool by measuring the volume of the intraintestinal content. The bi-cyclic-halogenated compounds of the present invention may show extremely great enteropooling effect. However, they hardly or slightly cause contraction of intestines which is one of indexes for assessment of the action (iv). Accordingly, the bi-cyclic-halogenated compounds of the present invention are considered to alleviate constipation by mainly acting on intestinal mucosa directly or indirectly to affect transfer of electrolytes and water from intestinal walls into blood vessels and/or from blood vessels into intestines, resulting in reduced water absorption and/or in increased water secretion through the intestines, increased intraintestinal water pool and promoted transfer of the intraintestinal content. Enteropooling tests and diarrhea tests were conducted. The dose that raise the intraintestinal content by 50% was referred to as ED50. [drawing 31] […]

healthy male volunteers = test: Bowel movement after single oral administration to healthy male volunteers; type: in vivo, human
Description: Effect of the Present Invention Dissolved in Medium Chain Fatty Acid Triglyceride on Bowel Movement After Single Oral Administration to Healthy Male Volunteers
3 to 9 healthy male volunteers were treated with a composition containing the following mono-cyclic/bi-cyclic structures (in CDCl3) in a ratio of 4:96.
The test substance (R1 and R2 are F atoms) was dissolved in Panacet 800 (medium chain fatty acid triglyceride manufactured by Nippon Oil & Fat co., Ltd., Amagasaki, Japan) and filled in a capsule (each capsule contains […] of the mixture). Each subject was administered one capsule with 100 mL of water.

[3] = Ratio of mono-cyclic/bi-cyclic structure by NMR measurement; type: physicochemical; settings: NMR measurement in CDCl3 solution
From the text: It has been discovered that in the absence of water, compounds represented by Formula (I) exist predominantly in the form of the bi-cyclic compound. In aqueous media, it is believed that hydrogen bonding occurs between, for example, the ketone position at the C-15 position, thereby hindering bi-cyclic ring formation. In addition, it is believed that the halogen atom(s) at the C-16 position promote bi-cyclic ring formation. The mono-cyclic/bi-cyclic structures, for example, may be present in a ratio of 1:6 in D2O; 1:10 in CD3OD-D2O and 4:96 in CDCl3. Accordingly, a preferable embodiment of the present invention is the composition in which the bi-cyclic form is present in ratio of bi -cyclic/mono-cyclic of least 1:1, and preferably 20:1, or even greater to substantially all bi-cyclic compound; 100% bi-cyclic compound is within this invention.
The biological activity of compositions due to the ratios of mono-cyclic/bi-cyclic structures when Z of general formula (I) is an oxygen atom, and a ketone is present at the C-9 position of the present invention can be seen from the following examples.

[4] = 5 μg single oral capsule in Panacet 800
[5] = 10 μg single oral capsule in Panacet 800
[6] = 20 μg single oral capsule in Panacet 800
[7] = 30 μg single oral capsule in Panacet 800

CCCCC(F)(F)C1(O)CC[C@@H]2C(CCCCCCC(=O)O)C(=O)C[C@H]2O1 (stereo partly shown) [compound 1]
content of compound, 38 days ([1]; in MCT (compound 1 0.36 mg/g), stored at 40° C., 38 days): 102.1 | content of compound, 90 days ([1]; in MCT (compound 1 0.36 mg/g), stored at 40° C., 90 days): 100.9 | content of compound, initial [1]: 100% | content of compound, 14 days ([1]; stored at 40° C.): 101.4 | content of compound, initial [2]: 100% | content of compound, 7 days ([2]; stored at 40° C., 7 days): 97.2 | content of compound, 14 days ([2]; stored at 40° C.): 94.1% | content of compound, 28 days ([2]; stored at 40° C.): 87.4%

CCCCC(F)(F)C1(O)CCC2C(CC(=O)C2CCCCCCC(=O)O)O1 (stereo not shown) [Example A]
Enteropooling activity, ED50 (intraintestinal content): 0.6 µg/kg

CCCCC(F)(F)C1(O)CCC2C(CC(=O)C2CCCCCCC(=O)O)O1 (stereo not shown) [test substance]
Number of Subjects Loose or Diarrhea (healthy male volunteers; [4]): 2/3 | Number of Subjects Normal (healthy male volunteers; [4]): 1/3 | Number of Subjects Loose or Diarrhea (healthy male volunteers; [5]): 2/7 | Number of Subjects Normal (healthy male volunteers; [5]): 5/7 | Number of Subjects Loose or Diarrhea (healthy male volunteers; [6]): 2/3 | Number of Subjects Normal (healthy male volunteers; [6]): 1/3 | Number of Subjects Loose or Diarrhea (healthy male volunteers; [7]): 7/9 | Number of Subjects Normal (healthy male volunteers; [7]): 2/9

CCCCC(F)(F)C1(O)CCC2C(CC(=O)C2CC=CCCCC(=O)OC)O1 (stereo not shown) [Example C]
Enteropooling activity, ED50 (intraintestinal content): 0.3 µg/kg

CCCCCC(=O)CCC1C(O)CC(=O)C1CCCCCCC(=O)O (stereo not shown) [Comparative Example A, reference compound]
Ratio of mono-cyclic/bi-cyclic structure [3]: No signal | Enteropooling activity, ED50 (intraintestinal content): 320 µg/kg

CCCCC(F)C(=O)CCC1C(O)CC(=O)C1CC=CCCCC(=O)OC (stereo not shown) [Example D]
Enteropooling activity, ED50 (intraintestinal content): 3 µg/kg

CCCCCC(=O)CCC1C(O)CC(=O)C1CC=CCCCC(=O)OC (stereo not shown) [Comparative Example C, reference compound]
Enteropooling activity, ED50 (intraintestinal content): 220 µg/kg

CCCCC(F)C(=O)CCC1C(O)CC(=O)C1CCCCCCC(=O)O (stereo not shown) [Example B]
Enteropooling activity, ED50 (intraintestinal content): 2 µg/kg

CC[C@H](C)CC(F)(F)C1(O)CC[C@@H]2C(CCCCCCC(=O)O)C(=O)C[C@H]2O1 (stereo partly shown) [compound 2]
content of compound, initial [1]: 100% | content of compound, 14 days ([1]; stored at 40° C.): 99.6 | content of compound, 28 days ([1]; in MCT (compound 2 0.12 mg/g), stored at 40° C., 28 days): 98.9% | content of compound, 191 days ([1]; in MCT (compound 2 0.12 mg/g), stored at 40° C., 191 days): 99.6% | content of compound, initial [2]: 100% | content of compound, 6 days ([2]; stored at 40° C., 6 days): 84.5% | content of compound, 14 days ([2]; stored at 40° C.): 75% | content of compound, 28 days ([2]; stored at 40° C.): 53.4%

— US8071613B2, “Anti-constipation composition” (Sucampo AG, priority 2000, dated 2011)
